Laboratory results reported in paper PMC10397409, “The action of physiological and synthetic steroids on the calcium channel CatSper in human sperm” (Frontiers in Cell and Developmental Biology, 2023).
pEC50, pIC50: −log10 of the molar value. Like-named read-outs stand apart in the source and are kept apart here.

What was measured:
Type in all cases: cell-based
CatSper [1] = biological target: T1, CatSper (Homo sapiens, UniProt Q7RTX7+Q86XQ3+Q8NEC5+Q96P56); assay: Inhibition of PGE1-induced Ca2+ influx in human sperm (screen 2 inhibitors); conditions: for IC50: PGE1-induced response, pooled from 3 independent experiments, read-out: Mean IC50 (PGE1) µM (±SD)
T1 construct: Motile spermatozoa were selected by a ‘swim-up’ procedure; endogenous in cells; host or cells: motile human spermatozoa (swim-up) from healthy donors
Method: (§1) Briefly, motile spermatozoa were selected by swim-up and labeled with the fluorescent calcium indicator Fluo-4 a.m. to image changes in [Ca^2+]i. After centrifugation to remove excess dye, Fluo-4 AM loaded cells were distributed in a 384-wells plate to obtain ∼125,000 cells/well. After measuring basal fluorescence, a first injection of compounds was performed in order to evaluate their effect on [Ca^2+]i alone. This first screen is therefore considered as a screen to search for ‘activators’. Fluorescence was recorded for 12 min during which sperm cells were continuously exposed to compounds. P4 or PGE1 were then added in the same wells to evaluate whether the tested compounds can reduce the ligand-induced activation of CatSper. This second screen was therefore considered to be a search for CatSper ‘inhibitors’.
(§2) Human semen samples were collected from healthy donors by masturbation after a recommended sexual abstinence period of minimum 2 days. Semen samples were allowed to liquefy at 37°C for 15–30 min. Motile spermatozoa were selected by a ‘swim-up’ procedure as previously described ([Strünker et al., 2011]). Briefly, 1 mL of semen was deposited in a 45°-inclined 50 mL Falcon tube with 4 mL of Human Tubular Fluid (HTF) medium containing: 93.8 mM NaCl, 4.7 mM KCl, 0.2 mM MgSO4, 0.37 mM KH2PO4, 2.04 mM CaCl2, 20.98 mM HEPES, 2.78 mM glucose, 21.4 mM Na-lactate, 4 mM NaHCO3, 0.33 mM Na-pyruvate, and the pH was adjusted to 7.35. Motile sperm were allowed to swim at 37°C for 1 hour. The supernatant was collected in 15 mL Falcon tubes and washed twice by centrifugation at 700 x g for 20 min. Sperm were supplemented with 3 mg/mL HSA. Written informed consent was obtained from all donors prior to donation and approved by the Cantonal Ethics Committee of the State of Geneva (CCER #14-147).
(§3) Cells were loaded with the fluorescent Ca^2+ indicator Fluo-4 AM at a final concentration of 2.5 µM for 30 min at 37°C. Excess dye was washed via centrifugation at 700 x g for 20 min and sperm were resuspended in HTF medium to obtain a final concentration of 6.25 x 10^6 cells/mL. 20 μL of cells (corresponding to ∼125,000 cells) loaded with Fluo-4 a.m. were dispensed in a 384-wells plate (Corning, NY, United States) to allow fluorescence measurement. The dye was excited at 480 nm, and emission was recorded at 530 nm. The change in [Ca^2+]i was assessed simultaneously in all wells using a Functional Drug Screening System (FDSS/μCELL) (Hamamatsu Phototonics K.K., Yokohama, Japan) at 37°C. Basal fluorescence was first measured for 30 s. […] P4 and PGE1 were tested at a near-saturating concentration in the HTS in order to evaluate a potential additive or synergistic effect induced by the compounds. Non-specific CatSper inhibitor MDL 12330A was used as a negative control at final concentration of 20 µM while DMSO was used as a vehicle control. For alkalization-induced Ca^2+ measurement, NH4Cl was used as a positive control at a final concentration of 10 mM. Fluorescence was recorded for a total of 16.5 min: 30 s before injection, 12 min after the first injection of the tested compounds, and 4 min after the second injection of either P4 or PGE1. The Prestwick library was tested in technical duplicate. Ca^2+ response curves were normalized using the following formula F−F0/F0×100 , where F 0 is the average of the basal fluorescence prior to the addition of the compound of interest and F corresponds to the fluorescence value at each time point. The ∆F/F0 of the vehicle control (DMSO) was subtracted from all the other values to adjust for dilution and pipetting artifacts. The values of all compounds were normalized to their respective controls.

CatSper [2] = biological target: T1, CatSper; assay: Inhibition of P4-induced Ca2+ influx in human sperm (screen 2 inhibitors); conditions: for Max P4 inhibition (%) (± SD): 3 independent experiments; for IC50: P4-induced response, pooled from 3 independent experiments
Method: as §1, §2, §3

CatSper [3] = biological target: T1, CatSper; assay: Steroid-induced increase in [Ca2+]i in human sperm (Fluo-4 HTS assay, screen 1 activators); conditions: for Emax: read-out: Max amplitude (%) (± SD); for EC50: pooled from 3 independent experiments
Method: as §1
Human semen samples were collected from healthy donors by masturbation after a recommended sexual abstinence period of minimum 2 days. Semen samples were allowed to liquefy at 37°C for 15–30 min. […] Motile sperm were allowed to swim at 37°C for 1 hour. The supernatant was collected in 15 mL Falcon tubes and washed twice by centrifugation at 700 x g for 20 min. Sperm were supplemented with 3 mg/mL HSA.
as §3, with “20” for “Cells were loaded with the fluorescent Ca^2+ indicator Fluo-4 AM at a final concentration of 2.5 µM for 30 min at 37°C. Excess dye was washed via centrifugation at 700 x g for 20 min and sperm were resuspended in HTF medium to obtain a final concentration of 6.25 x 10^6 cells/mL. 20”, “Non-specific CatSper inhibitor MDL 12330A was used as a negative control at final concentration of 20 µM while DMSO was used as a vehicle control.” left out, “Fluorescence was recorded for a total of 16.5 min: 30 s before injection, 12 min after the first injection of the tested compounds, and 4 min after the second injection of either P4 or PGE1.” left out
Data are shown as mean ± standard deviation (SD) with “n” referring to the number of independent experiments performed using sperm samples from ≥3 different donors. Statistical analysis and fitting of dose-response relations were performed using GraphPad Prism 8.1.1 (Prism, La Jolla, United States). To generate sigmoidal curves, the concentrations were converted to their respective log values, and the data were normalized using the following formula: 100⋅x/Fmax , where Fmax is the maximum value of the positive control. A four-parameter Hill equation with a variable Hill coefficient was fitted to generate the EC02, EC50, and IC50. Statistical significance between control and treated conditions was evaluated using a one-way analysis of variance (ANOVA), followed by Dunnett´s test. A p-value <0.05 was considered significant.

[4] = read-out: Mean IC50 (P4) µM (±SD)
[5] = maximal amplitude of steroid-induced [Ca2+]i increase, relative to P4, 3 independent experiments
[6] = IC50 (±SD), inhibition of P4-induced Ca2+ response, dose-response 90 µM to 0.3 nM
[7] = EC50 (±SD), increase in [Ca2+]i, dose-response 90 µM to 0.3 nM

For `C#C[C@]1(O)CC[C@H]2[C@@H]3CCC4=CCCC[C@@H]4[C@H]3CC[C@@]21C` [lynestrenol], the IC50 (CatSper [1]) was 11.7 µM, the “Max P4 inhibition (%) (± SD)” value (CatSper [2]) was 47 (±27) % and the IC50 (CatSper [2]; [4]) was 9.36 µM. The Emax (CatSper [3]; [5]) was 59% and the EC50 (CatSper [3]; read-out: Mean EC50 µM (±SD)) was 17.3 µM.

In the case of `CC(=O)[C@H]1CC[C@H]2[C@@H]3C=CC4=CC(=O)CC[C@@]4(C)[C@@H]3CC[C@]12C` [Dydrogesterone], the pIC50 (CatSper [1]) was 4.35, the “Max P4 inhibition (%) (± SD)” value (CatSper [2]) was 94 (±4) % and the pIC50 (CatSper [2]; [6]) was 6.61. For the same compound, the IC50 (CatSper [2]; Mean IC50 (P4) µM (±SD)) was 0.24 µM, the “EC02 compared with reported maximum concentration in blood serum” value (CatSper [3]) was “EC02 below the reported maximum concentration found in blood serum” and the “effective concentrations as low as (dose-dependent increase in [Ca2+]i)” value (CatSper [3]) was 10 nM. It also gave a pEC50 (CatSper [3]; [7]) of 6.89, an EC50 (CatSper [3]; Mean EC50 µM (±SD)) of 0.104 µM and an Emax (CatSper [3]; [5]) of 84%.

With `CC(=O)O[C@H]1CC[C@@]2(C)C(=CC[C@@H]3[C@@H]2CC[C@]2(C)C(=O)CC[C@@H]32)C1` [Dehydroisoandosterone 3-acetate (DHEA), Dehydroisoandosterone 3-acetate] the pIC50 (CatSper [1]) was 5.43, the “Max P4 inhibition (%) (± SD)” value (CatSper [2]) was 82 (±6) % and the IC50 (CatSper [2]; Mean IC50 (P4) µM (±SD)) was 1.69 µM. The “EC02 compared with reported maximum concentration in blood serum” value (CatSper [3]) was “EC02 below the reported maximum concentration found in blood serum”, the pEC50 (CatSper [3]; [7]) was 6.23 and the EC50 (CatSper [3]; Mean EC50 µM (±SD)) was 0.584 µM. It also gave an Emax (CatSper [3]) of 77%.

`CC(=O)O[C@]1(C(C)=O)CC[C@H]2[C@@H]3C=C(C)C4=CC(=O)CC[C@@H]4[C@H]3CC[C@@]21C` [nomegestrol acetate] was tested, and the IC50 (CatSper [1]) was 52 µM, the “Max P4 inhibition (%) (± SD)” value (CatSper [2]) was 12 (±17) % and the IC50 (CatSper [2]; [4]) was 41.2 µM. For the same compound, the Emax (CatSper [3]; [5]) was 19% and the EC50 (CatSper [3]; read-out: Mean EC50 µM (±SD)) was 22.7 µM.

`C[C@]12CCC(=O)C=C1C=C[C@@H]1[C@@H]2CC[C@@]2(C)[C@H]1CC[C@@]2(O)CCC(=O)[O-].[K+]` [canrenoic acid potassium salt] was tested, and the IC50 (CatSper [1]) was 16.3 µM, the “Max P4 inhibition (%) (± SD)” value (CatSper [2]) was 27 (±10) % and the IC50 (CatSper [2]; [4]) was 23.2 µM. For the same compound, the “Max amplitude (%) (± SD)” value (CatSper [3]; [5]) was 34 (±2) % and the EC50 (CatSper [3]; read-out: Mean EC50 µM (±SD)) was 23.4 µM.

`CC(C)(C)NC(=O)[C@H]1CC[C@H]2[C@@H]3CC[C@H]4NC(=O)C=C[C@]4(C)[C@H]3CC[C@]12C` [finasteride] was tested, and the IC50 (CatSper [1]) was greater than 100 µM, the “Max P4 inhibition (%) (± SD)” value (CatSper [2]) was 18 (±6) % and the Emax (CatSper [3]; [5]) was 39%. It also gave an EC50 (CatSper [3]; read-out: Mean EC50 µM (±SD)) of 0.78 µM.

With `CCCC1O[C@@H]2C[C@H]3[C@@H]4CCC5=CC(=O)C=C[C@]5(C)[C@H]4[C@@H](O)C[C@]3(C)[C@]2(C(=O)CO)O1` (stereo partly drawn) [budesonide] the IC50 (CatSper [1]) was greater than 100 µM, the “Max P4 inhibition (%) (± SD)” value (CatSper [2]) was 3 (±8) % and the Emax (CatSper [3]; [5]) was 7%.

In the case of `C#C[C@]1(O)CC[C@H]2[C@@H]3CCc4cc(OC)ccc4[C@H]3CC[C@@]21C` [ethynylestradiol 3-methyl ether], the “Max P4 inhibition (%) (± SD)” value (CatSper [2]) was 4 (±3) % and the Emax (CatSper [3]; [5]) was 9%.

`C[C@]12CC[C@H]3[C@@H](CCC4=CC(=O)CC[C@@]43C)[C@@H]1CC[C@@H]2C(=O)CO` [Deoxycorticosterone] was tested, and the “reduction of the P4 response” value (CatSper [2]) was “more than 86%”, the “Max P4 inhibition (%) (± SD)” value (CatSper [2]) was 86 (±3) % and the pIC50 (CatSper [2]; [6]) was 6.28. The pIC50 (CatSper [2]; IC50, reduction of P4 response) was 6.30, the pEC50 (CatSper [3]; [7]) was 6.52 and the pEC50 (CatSper [3]; EC50, increase in [Ca2+]i) was 6.52. The EC50 (CatSper [3]; Mean EC50 µM (±SD)) was 0.295 µM and the Emax (CatSper [3]) was 94%.

`C[C@]12CC[C@@H](O)C[C@H]1CC[C@@H]1[C@@H]2CC[C@]2(C)C(=O)CC[C@@H]12` [3-alpha-hydroxy-5-beta-androstan-17-one] was tested, and the “Max P4 inhibition (%) (± SD)” value (CatSper [2]) was 66 (±2) %, the IC50 (CatSper [2]; [4]) was 1.52 µM and the “Max amplitude (%) (± SD)” value (CatSper [3]; [5]) was 66 (±2) %. The EC50 (CatSper [3]; read-out: Mean EC50 µM (±SD)) was 0.915 µM.

`C[C@]12CC[C@@H]3c4ccc(O)cc4CC[C@H]3[C@@H]1CC[C@@H]2O` [estradiol-17 beta] was tested, and the “Max P4 inhibition (%) (± SD)” value (CatSper [2]) was 67 (±3) %, the IC50 (CatSper [2]; [4]) was 1.45 µM and the “Max amplitude (%) (± SD)” value (CatSper [3]; [5]) was 75 (±8) %. The EC50 (CatSper [3]; read-out: Mean EC50 µM (±SD)) was 0.761 µM.

In the case of `C[C@]12CC[C@H]3[C@@H](CCC4=CC(=O)CC[C@@]43C)[C@@H]1CC[C@@H]2O` [Testosterone], the “Max P4 inhibition (%) (± SD)” value (CatSper [2]) was 81 (±6) %, the IC50 (CatSper [2]; Mean IC50 (P4) µM (±SD)) was 1.09 µM and the pEC50 (CatSper [3]; [7]) was 6.39. For the same compound, the Emax (CatSper [3]) was 87%.

`CC12CCC3C(CC[C@H]4CC(=O)CCC34C)C1CCC2O` (stereo partly drawn) [S65] was tested, and the “Max P4 inhibition (%) (± SD)” value (CatSper [2]) was 95 (±1) % and the Emax (CatSper [3]) was 91%.

In the case of `C[C@]12CC[C@H]3[C@@H](CC[C@H]4C[C@H](O)CC[C@@H]43)[C@@H]1CCC2=O` [S85], the “Max P4 inhibition (%) (± SD)” value (CatSper [2]) was 96 (±2) %, the IC50 (CatSper [2]; Mean IC50 (P4) µM (±SD)) was 0.495 µM and the EC50 (CatSper [3]; Mean EC50 µM (±SD)) was 0.259 µM. For the same compound, the Emax (CatSper [3]) was 99%.
